From the supplement of paper PMC11451515

Test system: SEM cells
Assay: cell viability relative to DMSO control; higher = less cytotoxic
Settings: 48 h
Method in brief: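 Viability is a per-plate percentage relative to DMSO wells, with cell-free wells as background. CellTiter-Glo One luminescence was read after 48 h at 37°C on 1536-well plates (5 μl) of NOMO1 or SEM (500 cells/well) or P12-Ichikawa (1000 cells/well) leukemia cells. The cells had been adapted for at least four passages in each medium and pin-dosed with library compounds in DMSO from 47 μM to 0.79 nM in 11 threefold steps.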

[1] = HPLM + 10% dialyzed FBS, 0.000781 µM
[2] = HPLM + 10% dialyzed FBS, 0.00234 µM
[3] = HPLM + 10% dialyzed FBS, 0.00702 µM
[4] = HPLM + 10% dialyzed FBS, 0.0211 µM
[5] = HPLM + 10% dialyzed FBS, 0.0632 µM
[6] = HPLM + 10% dialyzed FBS, 0.19 µM
[7] = HPLM + 10% dialyzed FBS, 0.569 µM
[8] = HPLM + 10% dialyzed FBS, 1.71 µM
[9] = HPLM + 10% dialyzed FBS, 5.12 µM
[10] = HPLM + 10% dialyzed FBS, 15.4 µM
[11] = HPLM + 10% dialyzed FBS, 46.1 µM
[12] = RPMI 5 mM glucose + 10% FBS, 0.000781 µM
[13] = RPMI 5 mM glucose + 10% FBS, 0.00234 µM
[14] = RPMI 5 mM glucose + 10% FBS, 0.00702 µM
[15] = RPMI 5 mM glucose + 10% FBS, 0.0211 µM
[16] = RPMI 5 mM glucose + 10% FBS, 0.0632 µM
[17] = RPMI 5 mM glucose + 10% FBS, 0.19 µM
[18] = RPMI 5 mM glucose + 10% FBS, 0.569 µM
[19] = RPMI 5 mM glucose + 10% FBS, 1.71 µM
[20] = RPMI 5 mM glucose + 10% FBS, 5.12 µM
[21] = RPMI 5 mM glucose + 10% FBS, 15.4 µM
[22] = RPMI 5 mM glucose + 10% FBS, 46.1 µM
[23] = RPMI 5 mM glucose + 10% dialyzed FBS, 0.000781 µM
[24] = RPMI 5 mM glucose + 10% dialyzed FBS, 0.00234 µM
[25] = RPMI 5 mM glucose + 10% dialyzed FBS, 0.00702 µM
[26] = RPMI 5 mM glucose + 10% dialyzed FBS, 0.0211 µM
[27] = RPMI 5 mM glucose + 10% dialyzed FBS, 0.0632 µM
[28] = RPMI 5 mM glucose + 10% dialyzed FBS, 0.19 µM
[29] = RPMI 5 mM glucose + 10% dialyzed FBS, 0.569 µM
[30] = RPMI 5 mM glucose + 10% dialyzed FBS, 1.71 µM
[31] = RPMI 5 mM glucose + 10% dialyzed FBS, 5.12 µM
[32] = RPMI 5 mM glucose + 10% dialyzed FBS, 15.4 µM
[33] = RPMI 5 mM glucose + 10% dialyzed FBS, 46.1 µM

SMILES	cell viability [1]	cell viability [2]	cell viability [3]	cell viability [4]	cell viability [5]	cell viability [6]	cell viability [7]	cell viability [8]	cell viability [9]	cell viability [10]	cell viability [11]	cell viability [12]	cell viability [13]	cell viability [14]	cell viability [15]	cell viability [16]	cell viability [17]	cell viability [18]	cell viability [19]	cell viability [20]	cell viability [21]	cell viability [22]	cell viability [23]	cell viability [24]	cell viability [25]	cell viability [26]	cell viability [27]	cell viability [28]	cell viability [29]	cell viability [30]	cell viability [31]	cell viability [32]	cell viability [33]
C[C@H](NC(=O)Cc1cc(F)cc(F)c1)C(=O)N[C@@H]1C(=O)N(C)c2ccccc2-c2ccccc21	84.8%	106%	103%	77.7%	102%	102%	110%	106%	35.4%	3.3%	2.09%	94.2%	101%	88.5%	80.6%	107%	103%	98.1%	16%	4.52%	3.08%	1.53%	107%	103%	100%	79.4%	112%	109%	113%	105%	5.44%	3.49%	2.01%
FC1=CC=C(CN2\C=C/C=C(/C(=O)N[C@@H](COC3=CC4=C(NC(=O)N4)C=C3)C5=CC=CC=C5)C2=O)C=C1F	79.5%	85.6%	69.3%	94.2%	93.8%	98.8%	93.3%	77.5%	61%	54.6%	41.8%	93.6%	108%	85.9%	119%	109%	108%	93.8%	90%	57.1%	59.4%	38.5%	79.8%	91.2%	78.5%	93.4%	84.5%	93.1%	81%	76.9%	57.4%	49.8%	44.3%
CN1C2=CC(=O)/C(=N/NC(N)=O)C=C2CC1S(=O)(=O)[O-].[Na+] (centres undefined)	79.9%	110%	96.7%	103%	103%	110%	117%	105%	124%	103%	115%	109%	108%	114%	115%	103%	115%	112%	121%	128%	125%	112%	95.5%	109%	98.5%	110%	94.6%	116%	126%	114%	118%	117%	109%
